Measured values from the supplement of paper PMC10307832.

Assays:
Assay in all cases: relative viability (nuclei count vs DMSO), 5 days (fraction); higher = more cells survive
CAP-232 + Navitoclax = compound: C[C@H]([C@@H](C(=O)N)NC(=O)[C@@H]1CSSC[C@@H](C(=O)N[C@H](C(=O)N[C@@H](C(=O)N[C@H](C(=O)N1)CCCCN)CC2=CNC3=CC=CC=C32)CC4=CC=C(C=C4)O)NC(=O)[C@@H](CC5=CC=CC=C5)N)O [CAP-232] + CC1(C)CCC(c2ccc(Cl)cc2)=C(CN2CCN(c3ccc(C(=O)NS(=O)(=O)c4ccc(N[C@H](CCN5CCOCC5)CSc5ccccc5)c(S(=O)(=O)C(F)(F)F)c4)cc3)CC2)C1 [Navitoclax] (partner 0.5 µM)
Procedure, shortened: (§1)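 The day after seeding in 1536-well plates, lung cancer cell lines were treated by pin tool with a single drug, or with a fixed anchor-drug dose together with five library-drug doses (not always all listed) in √10 steps. After 5 days, a combined fix-and-stain solution (final 0.05% Triton X-100, 1% formaldehyde, 1 ug/ml Hoechst) was added. Nuclei counted on 4× images gave relative viability as treated counts over vehicle counts, reported as the median of duplicate plates.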

CAP-232 + OSI-027 = compound: C[C@H]([C@@H](C(=O)N)NC(=O)[C@@H]1CSSC[C@@H](C(=O)N[C@H](C(=O)N[C@@H](C(=O)N[C@H](C(=O)N1)CCCCN)CC2=CNC3=CC=CC=C32)CC4=CC=C(C=C4)O)NC(=O)[C@@H](CC5=CC=CC=C5)N)O [CAP-232] + COc1cccc2cc(-c3nc([C@H]4CC[C@H](C(=O)O)CC4)n4ncnc(N)c34)[nH]c12 [OSI-027] (partner 0.5 µM)
Procedure, shortened: as §1

CAP-232 + Trametinib = compound: C[C@H]([C@@H](C(=O)N)NC(=O)[C@@H]1CSSC[C@@H](C(=O)N[C@H](C(=O)N[C@@H](C(=O)N[C@H](C(=O)N1)CCCCN)CC2=CNC3=CC=CC=C32)CC4=CC=C(C=C4)O)NC(=O)[C@@H](CC5=CC=CC=C5)N)O [CAP-232] + CC(=O)Nc1cccc(-n2c(=O)n(C3CC3)c(=O)c3c(Nc4ccc(I)cc4F)n(C)c(=O)c(C)c32)c1 [Trametinib] (partner 0.02 µM)
Procedure, shortened: as §1

CAP-232 + Olaparib = compound: C[C@H]([C@@H](C(=O)N)NC(=O)[C@@H]1CSSC[C@@H](C(=O)N[C@H](C(=O)N[C@@H](C(=O)N[C@H](C(=O)N1)CCCCN)CC2=CNC3=CC=CC=C32)CC4=CC=C(C=C4)O)NC(=O)[C@@H](CC5=CC=CC=C5)N)O [CAP-232] + O=C(c1cc(Cc2n[nH]c(=O)c3ccccc23)ccc1F)N1CCN(C(=O)C2CC2)CC1 [Olaparib] (partner 8 µM)
Procedure, shortened: as §1

CAP-232 + Tozasertib = compound: C[C@H]([C@@H](C(=O)N)NC(=O)[C@@H]1CSSC[C@@H](C(=O)N[C@H](C(=O)N[C@@H](C(=O)N[C@H](C(=O)N1)CCCCN)CC2=CNC3=CC=CC=C32)CC4=CC=C(C=C4)O)NC(=O)[C@@H](CC5=CC=CC=C5)N)O [CAP-232] + Cc1cc(Nc2cc(N3CCN(C)CC3)nc(Sc3ccc(NC(=O)C4CC4)cc3)n2)n[nH]1 [Tozasertib] (partner 0.1 µM)
Procedure, shortened: as §1

Cell Line: 201T
- relative viability (CAP-232 + Navitoclax; first compound 0.4 µM): 1.23
- relative viability (CAP-232 + Navitoclax; first compound 1.265 µM): 1.19
- relative viability (CAP-232 + Navitoclax; first compound 4 µM): 1.12
- relative viability (CAP-232 + Navitoclax; first compound 12.65 µM): 1.22
- relative viability (CAP-232 + OSI-027; first compound 0.4 µM): 0.749
- relative viability (CAP-232 + OSI-027; first compound 1.265 µM): 0.669
- relative viability (CAP-232 + OSI-027; first compound 4 µM): 0.722
- relative viability (CAP-232 + OSI-027; first compound 12.65 µM): 0.549
- relative viability (CAP-232 + Trametinib; first compound 0.4 µM): 0.707
- relative viability (CAP-232 + Trametinib; first compound 1.265 µM): 0.698
- relative viability (CAP-232 + Trametinib; first compound 4 µM): 0.729
- relative viability (CAP-232 + Trametinib; first compound 12.65 µM): 0.677
- relative viability (CAP-232 + Olaparib; first compound 0.4 µM): 0.892
- relative viability (CAP-232 + Olaparib; first compound 1.265 µM): 0.833
- relative viability (CAP-232 + Olaparib; first compound 4 µM): 0.871
- relative viability (CAP-232 + Olaparib; first compound 12.65 µM): 0.854
- relative viability (CAP-232 + Tozasertib; first compound 0.4 µM): 1.04
- relative viability (CAP-232 + Tozasertib; first compound 1.265 µM): 0.91
- relative viability (CAP-232 + Tozasertib; first compound 4 µM): 0.979
- relative viability (CAP-232 + Tozasertib; first compound 12.65 µM): 0.926

Cell Line: A549
- relative viability (CAP-232 + Navitoclax; first compound 0.4 µM): 1.33
- relative viability (CAP-232 + Navitoclax; first compound 1.265 µM): 1.19
- relative viability (CAP-232 + Navitoclax; first compound 4 µM): 1.25
- relative viability (CAP-232 + Navitoclax; first compound 12.65 µM): 0.482
- relative viability (CAP-232 + Olaparib; first compound 0.4 µM): 0.211
- relative viability (CAP-232 + Olaparib; first compound 1.265 µM): 0.292
- relative viability (CAP-232 + Olaparib; first compound 4 µM): 0.396
- relative viability (CAP-232 + Olaparib; first compound 12.65 µM): 0.326

Cell Line: A-427
- relative viability (CAP-232 + Navitoclax; first compound 0.4 µM): 0.926
- relative viability (CAP-232 + Navitoclax; first compound 1.265 µM): 0.996
- relative viability (CAP-232 + Navitoclax; first compound 4 µM): 0.941
- relative viability (CAP-232 + Navitoclax; first compound 12.65 µM): 0.965
- relative viability (CAP-232 + OSI-027; first compound 0.4 µM): 0.306
- relative viability (CAP-232 + OSI-027; first compound 1.265 µM): 0.458
- relative viability (CAP-232 + OSI-027; first compound 4 µM): 0.494
- relative viability (CAP-232 + OSI-027; first compound 12.65 µM): 0.612
- relative viability (CAP-232 + Trametinib; first compound 0.4 µM): 0.615
- relative viability (CAP-232 + Trametinib; first compound 1.265 µM): 0.716
- relative viability (CAP-232 + Trametinib; first compound 4 µM): 0.795
- relative viability (CAP-232 + Trametinib; first compound 12.65 µM): 0.684
- relative viability (CAP-232 + Olaparib; first compound 0.4 µM): 0.813
- relative viability (CAP-232 + Olaparib; first compound 1.265 µM): 0.646
- relative viability (CAP-232 + Olaparib; first compound 4 µM): 0.808
- relative viability (CAP-232 + Olaparib; first compound 12.65 µM): 0.814
- relative viability (CAP-232 + Tozasertib; first compound 0.4 µM): 0.164
- relative viability (CAP-232 + Tozasertib; first compound 1.265 µM): 0.186
- relative viability (CAP-232 + Tozasertib; first compound 4 µM): 0.149
- relative viability (CAP-232 + Tozasertib; first compound 12.65 µM): 0.207

Cell Line: ABC-1
- relative viability (CAP-232 + OSI-027; first compound 0.4 µM): 0.455
- relative viability (CAP-232 + OSI-027; first compound 1.265 µM): 0.421
- relative viability (CAP-232 + OSI-027; first compound 4 µM): 0.481
- relative viability (CAP-232 + OSI-027; first compound 12.65 µM): 0.271
- relative viability (CAP-232 + Olaparib; first compound 0.4 µM): 0.778
- relative viability (CAP-232 + Olaparib; first compound 4 µM): 0.665
- relative viability (CAP-232 + Olaparib; first compound 12.65 µM): 0.368
- relative viability (CAP-232 + Tozasertib; first compound 0.4 µM): 0.155
- relative viability (CAP-232 + Tozasertib; first compound 1.265 µM): 0.143
- relative viability (CAP-232 + Tozasertib; first compound 4 µM): 0.179
- relative viability (CAP-232 + Tozasertib; first compound 12.65 µM): 0.148

Cell Line: BEN
- relative viability (CAP-232 + Navitoclax; first compound 0.4 µM): 0.0584
- relative viability (CAP-232 + Navitoclax; first compound 1.265 µM): 0.0704
- relative viability (CAP-232 + Navitoclax; first compound 4 µM): 0.0685
- relative viability (CAP-232 + Navitoclax; first compound 12.65 µM): 0.0473
- relative viability (CAP-232 + OSI-027; first compound 0.4 µM): 0.27
- relative viability (CAP-232 + OSI-027; first compound 1.265 µM): 0.33
- relative viability (CAP-232 + OSI-027; first compound 4 µM): 0.287
- relative viability (CAP-232 + OSI-027; first compound 12.65 µM): 0.241
- relative viability (CAP-232 + Trametinib; first compound 0.4 µM): 1.15
- relative viability (CAP-232 + Trametinib; first compound 1.265 µM): 0.987
- relative viability (CAP-232 + Trametinib; first compound 4 µM): 0.997
- relative viability (CAP-232 + Trametinib; first compound 12.65 µM): 0.914
- relative viability (CAP-232 + Olaparib; first compound 0.4 µM): 1.02
- relative viability (CAP-232 + Olaparib; first compound 1.265 µM): 1.04
- relative viability (CAP-232 + Olaparib; first compound 4 µM): 0.959
- relative viability (CAP-232 + Olaparib; first compound 12.65 µM): 1.07
- relative viability (CAP-232 + Tozasertib; first compound 0.4 µM): 0.413
- relative viability (CAP-232 + Tozasertib; first compound 1.265 µM): 0.547
- relative viability (CAP-232 + Tozasertib; first compound 4 µM): 0.387
- relative viability (CAP-232 + Tozasertib; first compound 12.65 µM): 0.635

Cell Line: CAL-12T
- relative viability (CAP-232 + Navitoclax; first compound 0.4 µM): 1.05
- relative viability (CAP-232 + Navitoclax; first compound 1.265 µM): 1.21
- relative viability (CAP-232 + Navitoclax; first compound 4 µM): 1.3
- relative viability (CAP-232 + Navitoclax; first compound 12.65 µM): 0.94
- relative viability (CAP-232 + OSI-027; first compound 0.4 µM): 0.611
- relative viability (CAP-232 + OSI-027; first compound 1.265 µM): 0.556
- relative viability (CAP-232 + OSI-027; first compound 4 µM): 0.585
- relative viability (CAP-232 + OSI-027; first compound 12.65 µM): 0.298
- relative viability (CAP-232 + Trametinib; first compound 0.4 µM): 0.233
- relative viability (CAP-232 + Trametinib; first compound 1.265 µM): 0.303
- relative viability (CAP-232 + Trametinib; first compound 4 µM): 0.394
- relative viability (CAP-232 + Trametinib; first compound 12.65 µM): 0.162
- relative viability (CAP-232 + Olaparib; first compound 0.4 µM): 0.778
- relative viability (CAP-232 + Olaparib; first compound 1.265 µM): 0.767
- relative viability (CAP-232 + Olaparib; first compound 4 µM): 0.696
- relative viability (CAP-232 + Olaparib; first compound 12.65 µM): 0.6
- relative viability (CAP-232 + Tozasertib; first compound 0.4 µM): 0.434
- relative viability (CAP-232 + Tozasertib; first compound 1.265 µM): 0.264
- relative viability (CAP-232 + Tozasertib; first compound 4 µM): 0.262
- relative viability (CAP-232 + Tozasertib; first compound 12.65 µM): 0.358

Cell Line: COR-L23
- relative viability (CAP-232 + Navitoclax; first compound 0.4 µM): 1.02
- relative viability (CAP-232 + Navitoclax; first compound 1.265 µM): 1.1
- relative viability (CAP-232 + Navitoclax; first compound 4 µM): 0.977
- relative viability (CAP-232 + Navitoclax; first compound 12.65 µM): 0.572
- relative viability (CAP-232 + OSI-027; first compound 0.4 µM): 1.15
- relative viability (CAP-232 + OSI-027; first compound 1.265 µM): 0.759
- relative viability (CAP-232 + OSI-027; first compound 4 µM): 0.85
- relative viability (CAP-232 + OSI-027; first compound 12.65 µM): 0.495
- relative viability (CAP-232 + Trametinib; first compound 0.4 µM): 0.455
- relative viability (CAP-232 + Trametinib; first compound 1.265 µM): 0.597
- relative viability (CAP-232 + Trametinib; first compound 4 µM): 0.604
- relative viability (CAP-232 + Trametinib; first compound 12.65 µM): 0.281
- relative viability (CAP-232 + Olaparib; first compound 0.4 µM): 0.43
- relative viability (CAP-232 + Olaparib; first compound 1.265 µM): 0.403
- relative viability (CAP-232 + Olaparib; first compound 4 µM): 0.404
- relative viability (CAP-232 + Olaparib; first compound 12.65 µM): 0.279
- relative viability (CAP-232 + Tozasertib; first compound 0.4 µM): 0.176
- relative viability (CAP-232 + Tozasertib; first compound 1.265 µM): 0.194
- relative viability (CAP-232 + Tozasertib; first compound 4 µM): 0.187
- relative viability (CAP-232 + Tozasertib; first compound 12.65 µM): 0.193
